The nature of data set [1]: Plasma pharmacokinetics of II-38 and 2,4-DNP released from II-38. Format: in vivo, Sprague-Dawley male rats. The conditions noted are these: for half-life: read-out: t1/2 of II-38; for bioavailability: read-out: % F of II-38. The procedure: The oral bioavailability and plasma pharmacokinetic (PK) properties of II-38 prodrug and 2,4-DNP-released from II-38 prodrug was investigated in Sprague-Dawley (S-D) male rats after a single i.v. injection of II-38 at 1.6 mg/kg (eq. to 1 mg/kg 2,4-DNP) and an oral dose eq. to 5, 25 and 50 mg/kg of 2,4-DNP. Blood samples were taken up to […].
All procedures that involved the use of rats were conducted in accordance with the guidelines set forth by the University of Arkansas for Medical Sciences (UAMS) Institutional Animal Care and Use Committee established by the National Institutes of Health's Guide for the Care and Use of Laboratory Animals (1996). Male Sprague-Dawley rats weighing 250-300 grams were housed three per cage with ad libitum access to food and water in the Division of Laboratory Animal Resources, UAMS. Rats were anesthetized with isofluorane (2-5%)/oxygen (1.5-2.0 L/min) and surgically implanted with cannulae in the jugular (i.v. dosing) and femoral (blood sampling) veins. […] Following appropriate evidence of successful recovery from surgery, IV or oral dosing was performed and blood samples (0.15 mL) were collected at 0, 5, 15, 30, 45, 60, 120, 240 and 480 min. Plasma samples were prepared and analysis was run using a LC/MS/MS spectrometry.
For the i.v. injection, a total volume of 0.8 mL/kg was used at a dose of 1.6 mg/kg (eq. to 1 mg/kg of 2,4-DNP). For the oral route, stock solutions of II-38 containing eq. to 1, 5 and 25 mg/mL of 2,4-DNP were prepared and administered to rats at final doses eq. to 1, 5 and 25 mg/kg of 2,4-DNP, respectively. An oral dose of 8 mg/kg of II-38 (eq. to 5 mg/kg) was dissolved in a phosphate-saline buffer solution, pH 7.4 containing 5% DMSO and 20% PEG-400, while a dose of 40 mg/kg (eq. to 25 mg/kg) was formulated with 0.5% methyl cellulose (methocel) containing 1% DMSO. A high dose of II-38 (eq. 50 mg/kg) was formulated with water containing 1% DMSO and 40% PEG-400. Because of the different vehicles used in formulations of II-38, a dose eq. to 25 mg/kg of 2,4-DNP was repeated using a vehicle consisting of DMSO, PEG-400, and water (1%: 40%: 59%). The later dose was utilized for comparison of PK data of 2,4-DNP-released from II-38 for differences in formulations.
Jugular and femoral vein-catheterized Sprague-Dawley male rats (weights 250-300 g, n=4) were treated with II-38 at a single oral dose of 8, 40 and 80 mg/kg (eq. to 5, 25 and 50 mg/kg of 2,4-DNP, respectively) or injected a single i.v. dose of 1.6 mg/kg of II-38 (eq. to 1 mg/kg 2,4-DNP, n=2). Blood samples (0.15 mL) were collected at 0, 5, 15, 30, 45, 60, 120, 240 and 480 min. Plasma samples were prepared and 2,4-DNP, II-38 and 2,4-DNP-released from II-38 concentrations were quantitated using the LC/MS/MS spectrometry assay method described below.
To isolate the analytes from rat plasma, 50 μL of control or treated plasma fortified with 10 μL of 2,4-DNP-d3 (10 μg/mL) as an internal standard to which 0.3 mL of methanol followed by 0.3 mL of acetonitrile was added. The mixture was vortex-mixed for 30 s and centrifuged for 10 min at 10,000 rpm at room temperature. The supernatant was transferred into 5 mL glass tubes and evaporated to dryness at 37° C. under nitrogen gas. The pellet was reconstituted with 50 μL of acetonitrile, vortex-mixed for 30 sec, followed by sonication for 1 min. Following centrifugation at 1000 rpm for 10 min at room temperature, 5 μL of the supernatant was then injected onto the column, and analytes were quantified by a LC/MS/MS spectrometry.
1—Plasma concentrations of 2,4-DNP after a single i.v. injection of 2,4-DNP of 1 mg/kg or 5 mg/kg oral administration; 2—Plasma concentrations of II-38 and 2,4-DNP-released from II-38 after an i.v. injection 1.6 mg/kg of II-38 eq. to 1 mg/kg of 2,4-DNP or an oral dose of 8, 40 and 80 mg/kg of II-38 eq. to 5, 25 and 50 mg/kg of 2,4-DNP, respectively. […]

Data set [2] can be described thus: Stability of II-38 in hydrochloric acid buffer, pH 1.2. The conditions noted are these: pH 1.2, 37° C., 5% DMSO, within 8 h. It is filed as physicochemical. How it is done: pH: Stability in aqueous buffers (37° C., pHs 1.2 and 7.4)
HPLC analysis was carried out on an Agilent 1200 Infinity Series Quatpump, equipped with a photodiode array detector and a computer integrating apparatus. An Inertsil ODS-3 column, C18, 5 μm, 4.6×50 mm (GL Science Inc. Japan) protected with a guard column: Alltima C18, 5 μm, 4.6×7.5 mm (Grace Discovery Sciences, IL, USA) was used as the stationary phase. An isocratic method with a mobile phase consisting of water/acetonitrile (70:30) containing 0.05% formic acid in each was used. A flow rate of 0.9 mL/min was used and detection was carried out at a UV wavelength of 250 nm.
Hydrochloric acid, pH 1.2 buffer was prepared. II-38 (2.5 mg) was dissolved in 0.125 mL of DMSO (5%). Reactions were initiated by adding II-38 dissolved in DMSO slowly and gradually to a total volume of 2.375 mL of HCl buffer, pH 1.2 (Table 1) in a Franz cell diffusion chamber preheated to 37° C. The solution was mixed for 30 sec every half an hour using magnetic stirrer. Samples of 20 μL (20 μg/mL of II-38) were collected at 0, 1, 2, 4, 6 and 8 h. Each sample was mixed with acetonitrile QS to 1 mL, vortex-mixed for 30 sec and centrifuged at 10,000 rpm at room temp. A volume of 10 μL of the supernatant was injected into the HPLC spectrometer for detection of 2,4-DNP and II-38 in HCl buffer, pH 1.2.

[3] abbreviates: male, Sprague-Dawley, rat, in vivo, iv, 1.6 mg/kg, single i.v. injection of II-38 1.6 mg/kg (eq. to 1 mg/kg 2,4-DNP), n = 2.
[4] abbreviates: male, Sprague-Dawley, rat, in vivo, po, 5 mg/kg, oral II-38 eq. to 5 mg/kg of 2,4-DNP.
[5] abbreviates: male, Sprague-Dawley, rat, in vivo, po, 25 mg/kg, oral II-38 eq. to 25 mg/kg of 2,4-DNP, PEG-400.
Setting [6] is: male, Sprague-Dawley, rat, in vivo, po, 25 mg/kg, oral II-38 eq. to 25 mg/kg of 2,4-DNP, methocel.
[7] abbreviates: male, Sprague-Dawley, rat, in vivo, po, 50 mg/kg, oral II-38 eq. 50 mg/kg of 2,4-DNP.

Consider two compounds from US11406642B2, “DNP and DNP prodrug treatment of neuromuscular, neurodegenerative, autoimmune, developmental, traumatic brain injury, concussion, dry eye disease, hearing loss and/or metabolic diseases” (priority 2016, dated 2022).

“Also recorded” adds a separate entry of the source. Read-outs that look alike come from different tables or passages of the source.

For the compound `O=C(Oc1ccc([N+](=O)[O-])cc1[N+](=O)[O-])N1CCOCC1` [II-38, 2,4-Dinitrophenyl morpholine-4-carboxylate], in data set [1] (setting [3]), the AUC was 8600 ng·h/mL, the Cmax was 900 ± 50 ng/mL and the half-life turned out to be 6.89 ± 1.09 h. In addition, the clearance in data set [1] (male, Sprague-Dawley, rat, in vivo, iv, single i.v. injection of II-38 1.6 mg/kg (eq. to 1 mg/kg 2,4-DNP), n = 2, read-out: Cl of II-38) came out at 3.1 ± 0.3 mL/min/kg. For the same compound, in data set [1] (male, Sprague-Dawley, rat, in vivo, iv, single i.v. injection of II-38 1.6 mg/kg (eq. to 1 mg/kg 2,4-DNP), n = 2, read-out: Vss of II-38), the Vd was 1.86 ± 0.101 L/kg. Further, in data set [1] (setting [4]), the AUC was 15000 ng·h/mL, the Cmax worked out at 1100 ± 200 ng/mL, the time of peak concentration (Tmax) was 2.19 h and the bioavailability turned out to be 44.8 ± 4.4%. Moreover, in data set [1] (setting [4]), the half-life was 15.2 ± 7 h. Moreover, in data set [1] (setting [5]), the exposure (AUC) is 14600 ng·h/mL, the maximum concentration (Cmax) turned out to be 2410 ± 300 ng/mL, the Tmax is 1.5 h and the bioavailability worked out at 21.3 ± 0.9%. Also, the half-life in data set [1] (setting [5]) came to 7.41 ± 3.06 h. Further, in data set [1] (setting [6]), the area under the curve (AUC) is 18400 ng·h/mL, the Cmax came out at 1800 ± 300 ng/mL, the Tmax was 0.458 h and the bioavailability came out at 31.6 ± 1.2%. The half-life in data set [1] (setting [6]) came out at 11 ± 4.2 h. In data set [1] (setting [7]), the AUC was 24300 ng·h/mL, the Cmax amounted to 1900 ± 600 ng/mL, the Tmax is 1.69 h and the bioavailability was 24.5 ± 1.1%. For the same compound, the half-life in data set [1] (setting [7]) came to 17.7 ± 6.96 h. In data set [2], the “hydrolysis / stability in HCl buffer” value was “no significant hydrolysis; also recorded: did not show significant hydrolysis; also recorded: no evidence of 2,4-DNP formation”.
In the case of `O=[N+]([O-])c1ccc(O)c([N+](=O)[O-])c1` [2,4-DNP, 2,4-dinitrophenol], the “fold increased level of 2,4-DNP after oral 2,4-DNP compared to 2,4-DNP released from II-38” value in data set [1] (2,4-DNP 5 mg/kg oral vs II-38 oral eq. to 5 mg/kg) is listed as “approximately 12.0 fold”; in data set [1] (2,4-DNP 5 mg/kg oral vs II-38 oral eq. to 25 mg/kg (PEG-400)) it was approximately 3.4 fold; in data set [1] (2,4-DNP 5 mg/kg oral vs II-38 oral eq. to 25 mg/kg (methocel)), approximately 2.2 fold; in data set [1] (2,4-DNP 5 mg/kg oral vs II-38 oral eq. to 50 mg/kg) it was approximately 1.4 fold.

For orientation: AUC means concentration integrated over time. A word on the Cmax: it is the peak of the concentration-time curve. As a reminder, the Tmax is the time from dosing to the highest level.
